Measured values from patent US20210403567A1, “METHODS OF TREATING CERVICAL CANCER BY ADMINISTERING A PD-1 INHIBITOR” (priority 2020, published 2021).
Entries after “also recorded” stand apart in the source; their conditions may differ.

Tested on: recurrent or metastatic cervical cancer
Test: Phase 3 trial, cemiplimab versus IC chemotherapy: quality of life, EORTC QLQ-C30 (GHS/QoL, functioning and symptom scales), MMRM LS mean change from baseline
Type: in vivo, human
Method: QOL is measured by the EORTC QLQ-C30.
Quality of Life Questionnaires: Patient-reported outcomes are measured using the validated patient self-administered EORTC QLQ-C30 questionnaire. Patients are asked to complete these questionnaires prior to any study procedures being performed at a given study visit (during the on-study/treatment and follow-up periods).
QoL: Longitudinal change from baseline at each PRO assessment in the GHS/QoL and PF scales was analyzed using a mixed model with repeated measures (MMRM). Higher scores on these scales indicate better health status/function. […] The model generated least squares (LS) mean estimates, standard errors, 95% CIs and p-values (where applicable) for mean changes from baseline on each PRO assessment.
At baseline and Day 1 of each treatment cycle (up to 16), patients were administered the EORTC QLQ-030. Mixed-effects repeated measures models estimated least squares (LS) mean change from baseline across all scales. Responder analyses determined the proportions with clinically meaningful (using 10-point threshold) improvement or deterioration, or stability on QLQ-030.

[1] = SCC patients, Overall Across Cycles
[2] = overall population, Overall Across Cycles

## cemiplimab
SCC patients, C2D1
  Difference in LS mean change, Cemiplimab versus Chemotherapy, Physical Functioning: 4.09
  LS mean change from baseline, EORTC QLQ-C30 GHS/QoL: −2.02
  LS mean change from baseline, EORTC QLQ-C30 Physical Functioning: −1.82
SCC patients, C3D1
  Difference in LS mean change, Cemiplimab versus Chemotherapy, GHS/QoL: 9.41
  Difference in LS mean change, Cemiplimab versus Chemotherapy, Physical Functioning: 7.33
  LS mean change from baseline, EORTC QLQ-C30 GHS/QoL: 1.18
  LS mean change from baseline, EORTC QLQ-C30 Physical Functioning: 2.10
SCC patients, C4D1
  Difference in LS mean change, Cemiplimab versus Chemotherapy, GHS/QoL: 12.36
  Difference in LS mean change, Cemiplimab versus Chemotherapy, Physical Functioning: 10.41
  LS mean change from baseline, EORTC QLQ-C30 GHS/QoL: 5.15
  LS mean change from baseline, EORTC QLQ-C30 Physical Functioning: 5.21
SCC patients, C5D1
  Difference in LS mean change, Cemiplimab versus Chemotherapy, GHS/QoL: 6.94
  Difference in LS mean change, Cemiplimab versus Chemotherapy, Physical Functioning: 6.86
  LS mean change from baseline, EORTC QLQ-C30 GHS/QoL: 0.85
  LS mean change from baseline, EORTC QLQ-C30 Physical Functioning: −0.17
SCC patients, C6D1
  Difference in LS mean change, Cemiplimab versus Chemotherapy, GHS/QoL: 6.83
  Difference in LS mean change, Cemiplimab versus Chemotherapy, Physical Functioning: 7.11
  LS mean change from baseline, EORTC QLQ-C30 GHS/QoL: −0.17
  LS mean change from baseline, EORTC QLQ-C30 Physical Functioning: 0.82
SCC patients, C7D1
  Difference in LS mean change, Cemiplimab versus Chemotherapy, GHS/QoL: 11.25
  Difference in LS mean change, Cemiplimab versus Chemotherapy, Physical Functioning: 14.30
  LS mean change from baseline, EORTC QLQ-C30 GHS/QoL: 2.09
  LS mean change from baseline, EORTC QLQ-C30 Physical Functioning: −0.07
[1]
  Difference in LS mean change, Cemiplimab versus Chemotherapy, GHS/QoL: 8.49
  Difference in LS mean change, Cemiplimab versus Chemotherapy, Physical Functioning: 8.35
  LS mean change from baseline, EORTC QLQ-C30 GHS/QoL: 1.18
  LS mean change from baseline, EORTC QLQ-C30 Physical Functioning: 1.01
Overall population, C2D1
  Difference in LS mean change, Cemiplimab versus Chemotherapy, GHS/QoL: 3.25
  LS mean change from baseline, EORTC QLQ-C30 GHS/QoL: −1.03
  LS mean change from baseline, EORTC QLQ-C30 Physical Functioning: −2.41
Overall population, C3D1
  Difference in LS mean change, Cemiplimab versus Chemotherapy, GHS/QoL: 7.41
  Difference in LS mean change, Cemiplimab versus Chemotherapy, Physical Functioning: 6.02
  LS mean change from baseline, EORTC QLQ-C30 GHS/QoL: 1.19
  LS mean change from baseline, EORTC QLQ-C30 Physical Functioning: 0.49
Overall population, C4D1
  Difference in LS mean change, Cemiplimab versus Chemotherapy, GHS/QoL: 10.55
  Difference in LS mean change, Cemiplimab versus Chemotherapy, Physical Functioning: 932
  LS mean change from baseline, EORTC QLQ-C30 GHS/QoL: 4.47
  LS mean change from baseline, EORTC QLQ-C30 Physical Functioning: 2.38
Overall population, C5D1
  Difference in LS mean change, Cemiplimab versus Chemotherapy, GHS/QoL: 5.66
  Difference in LS mean change, Cemiplimab versus Chemotherapy, Physical Functioning: 6.74
  LS mean change from baseline, EORTC QLQ-C30 GHS/QoL: 0.48
  LS mean change from baseline, EORTC QLQ-C30 Physical Functioning: −1.27
Overall population, C6D1
  Difference in LS mean change, Cemiplimab versus Chemotherapy, GHS/QoL: 5.44
  Difference in LS mean change, Cemiplimab versus Chemotherapy, Physical Functioning: 6.93
  LS mean change from baseline, EORTC QLQ-C30 GHS/QoL: −0.29
  LS mean change from baseline, EORTC QLQ-C30 Physical Functioning: −1.34
Overall population, C7D1
  Difference in LS mean change, Cemiplimab versus Chemotherapy, GHS/QoL: 8.30
  Difference in LS mean change, Cemiplimab versus Chemotherapy, Physical Functioning: 11.66
  LS mean change from baseline, EORTC QLQ-C30 GHS/QoL: 3.32
  LS mean change from baseline, EORTC QLQ-C30 Physical Functioning: −0.10
Overall population, C8D1
  Difference in LS mean change, Cemiplimab versus Chemotherapy, GHS/QoL: 14.08
  Difference in LS mean change, Cemiplimab versus Chemotherapy, Physical Functioning: 12.96
  LS mean change from baseline, EORTC QLQ-C30 GHS/QoL: −1.09
  LS mean change from baseline, EORTC QLQ-C30 Physical Functioning: −0.89
Overall population, EORTC QLQ-C30
  course of GHS/QoL from baseline: improved or maintained GHS/QoL from baseline; also recorded: generally improve or maintain their baseline GHS/QOL
[2]
  Difference in LS mean change, Cemiplimab versus Chemotherapy, GHS/QoL: 7.81
  Difference in LS mean change, Cemiplimab versus Chemotherapy, Physical Functioning: 8.26
  LS mean change from baseline, EORTC QLQ-C30 GHS/QoL: 1.01
  LS mean change from baseline, EORTC QLQ-C30 Physical Functioning: −0.45
